Results from article PMC6718324 (European journal of medicinal chemistry, 2019).
Blank lines part the entries; values can stand above or below the molecule they belong to.

Experiments:
hPXR = target: T1, hPXR (Homo sapiens, UniProt O75469); assay: HepG2 cell reporter assay, hPXR activation; type: cell-based; settings: 1 μM; for hPXR activation in HepG2 cell reporter assay (in words): normalized against rifampicin; for selectivity for hCAR over hPXR (in words): HepG2 cell reporter assays
T1 sequence (O75469 1-434): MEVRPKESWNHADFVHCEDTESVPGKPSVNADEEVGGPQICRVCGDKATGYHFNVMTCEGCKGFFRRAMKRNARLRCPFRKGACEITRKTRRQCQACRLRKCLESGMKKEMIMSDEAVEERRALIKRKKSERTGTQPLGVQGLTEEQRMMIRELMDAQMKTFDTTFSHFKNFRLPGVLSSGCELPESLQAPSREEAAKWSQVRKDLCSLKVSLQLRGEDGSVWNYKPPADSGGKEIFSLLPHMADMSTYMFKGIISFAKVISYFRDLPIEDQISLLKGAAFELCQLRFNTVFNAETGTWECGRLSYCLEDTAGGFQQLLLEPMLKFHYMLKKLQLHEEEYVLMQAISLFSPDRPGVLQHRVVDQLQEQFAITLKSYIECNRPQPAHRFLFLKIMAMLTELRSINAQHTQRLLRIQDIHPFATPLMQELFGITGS

hCAR [1] = target: T2, hCAR (Homo sapiens, UniProt Q14994); assay: hCAR agonist luciferase reporter gene assay; type: cell-based; settings: for fold decrease in potency (EC50) compared to compound 2: hCAR EC50 vs parent compound 2; for hCAR agonist activity (in words): hCAR luciferase reporter
T2 sequence (Q14994 1-348 isoform Q14994-2): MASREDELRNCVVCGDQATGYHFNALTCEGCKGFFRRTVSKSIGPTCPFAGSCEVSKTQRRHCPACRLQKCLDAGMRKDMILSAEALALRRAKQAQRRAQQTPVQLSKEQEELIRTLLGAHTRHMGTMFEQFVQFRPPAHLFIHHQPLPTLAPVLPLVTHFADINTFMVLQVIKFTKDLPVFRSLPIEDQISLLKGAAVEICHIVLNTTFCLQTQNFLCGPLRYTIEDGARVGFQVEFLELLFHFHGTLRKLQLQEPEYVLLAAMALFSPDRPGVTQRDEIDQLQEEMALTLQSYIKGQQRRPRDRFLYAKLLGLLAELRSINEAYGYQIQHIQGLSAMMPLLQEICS
T2 sequence (P19793 1-462 partner): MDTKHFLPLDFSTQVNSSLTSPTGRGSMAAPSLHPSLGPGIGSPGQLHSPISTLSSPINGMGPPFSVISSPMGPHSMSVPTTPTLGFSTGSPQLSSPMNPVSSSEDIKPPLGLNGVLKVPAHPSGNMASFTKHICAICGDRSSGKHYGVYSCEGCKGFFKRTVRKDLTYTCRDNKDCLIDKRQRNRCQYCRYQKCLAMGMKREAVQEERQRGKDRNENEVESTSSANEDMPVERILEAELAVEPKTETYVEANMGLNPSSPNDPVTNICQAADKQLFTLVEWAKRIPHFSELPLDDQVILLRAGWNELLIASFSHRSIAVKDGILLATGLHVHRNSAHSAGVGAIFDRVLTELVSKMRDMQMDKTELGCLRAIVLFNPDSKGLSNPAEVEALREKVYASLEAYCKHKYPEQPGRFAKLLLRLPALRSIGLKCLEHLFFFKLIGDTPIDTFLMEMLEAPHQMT

hCAR [2] = assay: HepG2 cell reporter assay, hCAR activation; type: cell-based, human; settings: 1 μM; normalized against CITCO
hCAR [3] = assay: hCAR nuclear translocation assay in HPH; type: cell-based, human; settings: Ad-EYFP-hCAR-infected HPH, 1 μM, 8 h
[4] = cited from earlier work
Stability = type: physicochemical
SU-DHL-4 cells = assay: CHOP-mediated cytotoxicity in HPH/SU-DHL-4 co-culture; type: cell-based, human

Structure (SMILES): c1ccc(CCNCc2c(-c3ccc4ccccc4c3)nc3sccn23)cc1 [Compound 30, N-((6-(Naphthalen-2-yl)imidazo[2,1-b]thiazol-5-yl)methyl)-2-phenylethan-1-amine]
- hPXR activation in HepG2 cell reporter assay (in words) (hPXR): significantly activated hPXR

Structure (SMILES): Clc1ccc(-c2nc3sccn3c2/C=N/OCc2ccc(Cl)c(Cl)c2)cc1 [CITCO, 6-(4-chlorophenyl)imidazo-[2,1-b]thiazole-5-carbaldehyde-O-(3,4-dichlorobenzyl)oxime, reference compound]
- hCAR translocation from cytoplasm to nucleus (in words) (hCAR [3]): efficiently translocated into the nucleus
- stability of results in hCAR luciferase gene reporter assay (in words) [4]: unstable results

Structure (SMILES): Clc1ccc(CCNCc2c(-c3ccc4ccccc4c3)nc3sccn23)cc1Cl [Compound 29, 2-(3,4-Dichlorophenyl)-N-((6-(naphthalen-2-yl)imidazo[2,1-b]thiazol-5-yl)methyl)ethan-1-amine]
- selectivity for hCAR over hPXR (in words) (hPXR): retained selectivity for hCAR over hPXR
- fold decrease in potency (EC50) compared to compound 2 (hCAR [1]): 3 fold
- hCAR activation in HepG2 cell reporter assay (in words) (hCAR [2]): slight increase in activation of hCAR

Structure (SMILES): Cc1cn2c(CNCCc3ccc(Cl)c(Cl)c3)c(-c3ccc(Cl)cc3)nc2s1 [Compound 6, N-((6-(4-Chlorophenyl)-2-methylimidazo[2,1-b]thiazol-5-yl)methyl)-2-(3,4-dichlorophenyl)ethan-1-amine]
- fold decrease in potency (EC50) compared to compound 2 (hCAR [1]): 5.5 fold

Structure (SMILES): Clc1ccc(-c2nc3sccn3c2CNCCc2ccccc2)cc1 [Compound 14, N-((6-(4-Chlorophenyl)imidazo[2,1-b]thiazol-5-yl)methyl)-2-phenylethan-1-amine]
- selectivity for hCAR over hPXR (in words) (hPXR): maintaining selectivity for hCAR against hPXR
- hCAR agonist activity (in words) (hCAR [1]): potent hCAR agonist

Structure (SMILES): Clc1ccc(CCNCc2c(-c3ccccc3)nc3sccn23)cc1Cl [Compound 24, 2-(3,4-Dichlorophenyl)-N-((6-phenylimidazo[2,1-b]thiazol-5-yl)methyl)ethan-1-amine]
- hCAR activation in HepG2 cell reporter assay (in words) (hCAR [2]): slightly decreased activation potency

Structure (SMILES): Clc1ccc(-c2nc3occn3c2CNCCc2ccc(Cl)c(Cl)c2)cc1 [Compound 7, N-((6-(4-Chlorophenyl)imidazo[2,1-b]oxazol-5-yl)methyl)-2-(3,4-dichlorophenyl)ethan-1-amine]
- selectivity for hCAR over hPXR (in words) (hPXR): good specificity for hCAR
- fold decrease in potency (EC50) compared to compound 2 (hCAR [1]): 3.2 fold
- hCAR activation in HepG2 cell reporter assay (in words) (hCAR [2]): slight decrease in hCAR activation potency

Structure (SMILES): FC(F)(F)c1ccc(-c2nc3sccn3c2CNCCc2ccc(Cl)c(Cl)c2)cc1 [Compound 22, 2-(3,4-Dichlorophenyl)-N-((6-(4-(trifluoromethyl)phenyl)imidazo[2,1-b]thiazol-5-yl)methyl)ethan-1-amine]
- hCAR agonist activity (in words) (hCAR [1]): much weaker agonist

Structure (SMILES): c1ccc2c(c1)CC(NCc1c(-c3ccc4ccccc4c3)nc3occn13)C2 [DL5016, N-((6-(Naphthalen-2-yl)imidazo[2,1-b]oxazol-5-yl)methyl)-2,3-dihydro-1H-inden-2-amine]
- selectivity for hCAR over hPXR (in words) (hPXR): maintaining selectivity over hPXR
- hCAR activation in HepG2 cell reporter assay (in words) (hCAR [2]): significant improvement in hCAR activation over CITCO
- stability (in words) (Stability): excellent stability
- hCAR translocation from cytoplasm to nucleus (in words) (hCAR [3]): efficiently translocated into the nucleus
- effect on CHOP-induced cytotoxicity in SU-DHL-4 cells (in words) (SU-DHL-4 cells; DL5016 1 μM with CHOP, 24 h): significantly enhanced CHOP-induced cytotoxicity
- cytotoxicity of compound alone in co-cultured SU-DHL-4 cells (in words) (SU-DHL-4 cells; control experiment without CHOP): did not show cytotoxicity

Structure (SMILES): CCc1nc2sccn2c1CNCCc1ccc(Cl)c(Cl)c1 [Compound 19, 2-(3,4-Dichlorophenyl)-N-((6-ethylimidazo[2,1-b]thiazol-5-yl)methyl)ethan-1-amine]
- hCAR agonist activity (in words) (hCAR [1]): dramatic drop in hCAR activity

Structure (SMILES): Clc1ccc(-c2nc3sccn3c2CNCCc2ccc(Cl)c(Cl)c2)cc1 [Compound 2, N-((6-(4-Chlorophenyl)imidazo[2,1-b]thiazol-5-yl)methyl)-2-(3,4-dichlorophenyl)ethan-1-amine]
- fold increase in potency compared to CITCO (hCAR [1]; hCAR EC50 vs CITCO): 1.4 fold

Structure (SMILES): CC(C)(C)c1ccc(-c2nc3sccn3c2CNCCc2ccc(Cl)c(Cl)c2)cc1 [Compound 28, N-((6-(4-(tert-Butyl)phenyl)imidazo[2,1-b]thiazol-5-yl)methyl)-2-(3,4-dichlorophenyl)ethan-1-amine]
- hCAR agonist activity (in words) (hCAR [1]): significantly less active

Structure (SMILES): Clc1ccc(-c2nc3sccn3c2CNC2Cc3ccccc3C2)cc1 [Compound 17, N-((6-(4-Chlorophenyl)imidazo[2,1-b]thiazol-5-yl)methyl)-2,3-dihydro-1H-inden-2-amine]
- selectivity for hCAR over hPXR (in words) (hPXR): maintaining selectivity for hCAR against hPXR

Structure (SMILES): Fc1ccc(-c2nc3sccn3c2CNCCc2ccc(Cl)c(Cl)c2)cc1 [Compound 23, 2-(3,4-Dichlorophenyl)-N-((6-(4-fluorophenyl)imidazo[2,1-b]thiazol-5-yl)methyl)ethan-1-amine]
- hCAR activation in HepG2 cell reporter assay (in words) (hCAR [2]): slightly decreased activation potency

Structure (SMILES): Clc1ccc(CCNCc2c(-c3ccc(Cl)cc3)nc3sccn23)cc1 [Compound 9, 2-(4-Chlorophenyl)-N-((6-(4-chlorophenyl)imidazo[2,1-b]thiazol-5-yl)methyl)ethan-1-amine]
- selectivity for hCAR over hPXR (in words) (hPXR): maintaining selectivity for hCAR against hPXR
- fold decrease in potency (EC50) compared to compound 2 (hCAR [1]): 1.6 fold

Structure (SMILES): Clc1ccc(-c2nc3sccn3c2CNc2ccc3ccccc3c2)cc1 [Compound 18, N-((6-(4-Chlorophenyl)imidazo[2,1-b]thiazol-5-yl)methyl)naphthalen-2-amine]
- hCAR agonist activity (in words) (hCAR [1]): inactive

Now from value to molecule, other results behind:

- fold decrease in potency (EC50) compared to compound 2 (hCAR [1]): 2 fold
Structure (SMILES): Clc1ccc(-c2nc3ncccn3c2CNCCc2ccc(Cl)c(Cl)c2)cc1 [Compound 8, N-((2-(4-Chlorophenyl)imidazo[1,2-a]pyrimidin-3-yl)methyl)-2-(3,4-dichlorophenyl)ethan-1-amine]
- hCAR activation in HepG2 cell reporter assay (in words) (hCAR [2]): less potent compared to CITCO

- fold decrease in potency (EC50) compared to compound 2 (hCAR [1]): 7 fold
Structure (SMILES): Clc1ccc(-c2nc3sccn3c2CNCCc2cccc(Cl)c2)cc1 [Compound 10, 2-(3-Chlorophenyl)-N-((6-(4-chlorophenyl)imidazo[2,1-b]thiazol-5-yl)methyl)ethan-1-amine]

- fold decrease in potency (EC50) compared to compound 2 (hCAR [1]): 2.3 fold
Structure (SMILES): Clc1cccc(-c2nc3sccn3c2CNCCc2ccc(Cl)c(Cl)c2)c1 [Compound 20, N-((6-(3-Chlorophenyl)imidazo[2,1-b]thiazol-5-yl)methyl)-2-(3,4-dichlorophenyl)ethan-1-amine]

- hCAR agonist activity (in words) (hCAR [1]): significantly less active
Structure (SMILES): N#Cc1ccc(-c2nc3sccn3c2CNCCc2ccc(Cl)c(Cl)c2)cc1 [Compound 27, 4-(5-(((3,4-Dichlorophenethyl)amino)methyl)imidazo[2,1-b]thiazol-6-yl)benzonitrile]

- hPXR activation in HepG2 cell reporter assay (in words) (hPXR): slightly increased
Structure (SMILES): c1ccc2c(c1)CC(NCc1c(-c3ccc4ccccc4c3)nc3sccn13)C2 [Compound 31, N-((6-(Naphthalen-2-yl)imidazo[2,1-b]thiazol-5-yl)methyl)-2,3-dihydro-1H-inden-2-amine]
- hCAR activation in HepG2 cell reporter assay (in words) (hCAR [2]): enhanced hCAR activation over CITCO

- hPXR activation in HepG2 cell reporter assay (in words) (hPXR): significantly activated hPXR
Structure (SMILES): Clc1ccc(-c2nc3sccn3c2COCCc2ccc(Cl)c(Cl)c2)cc1 [Compound 5, 6-(4-Chlorophenyl)-5-((3,4-dichlorophenethoxy)methyl)imidazo[2,1-b]thiazole]

- fold decrease in potency compared to compound 14 (hCAR [1]; hCAR EC50, analog one CH2 shorter than 14): over 11 fold
Structure (SMILES): Clc1ccc(-c2nc3sccn3c2CNCc2ccccc2)cc1 [Compound 15, N-Benzyl-1-(6-(4-chlorophenyl)imidazo[2,1-b]thiazol-5-yl)methanamine]
